This note sets out measurements from US20250333418A1, “PURINE COMPOUNDS, COMPOSITIONS COMPRISING THEM AND USES THEREOF” (Novo Nordisk A/S, priority 2022, published 2025).

Test [1] concerns the target T1, human CB1 receptor (Homo sapiens, UniProt P21554).
T1 construct: expressed in transfected cells; host or cells: HEK293
The test is described as follows: bioSensAll GAPL-Gi2 BRET biosensor assay in HEK293 cells transfected with hCB1; test compound added before EC75-80 of agonist CP55,940 (0.1 nM). The class given is cell-based. The following applies: vs CP55,940 0.1 nM (EC75-80), read-out: CB1 wt Gi2 IC50. As to the method:
(§1) Using polyethylenimine (PEI) transfection agent, HEK293 cells were transfected in suspension with the human CB1 receptor and one of the following bioSensAll® assays: GAPL-Gi2, or β-arrestin plasma membrane (PM) translocation biosensor (+GRK2). Cells were directly seeded in 96-well plates immediately following transfection.
(§2) Cells were incubated with coelenterazine (luciferase substrate) and different test compounds prior to the measurement of BRET signals.
(§3) Used in this project are i) Gα plasma membrane (GAPL) biosensors and the ii) β-arrestin plasma membrane translocation biosensor.
i) GAPL sensors are used to monitor the activation of heterotrimeric G proteins at the plasma membrane upon receptor stimulation. Specifically, these multimolecular BRET sensors detect the plasma membrane recruitment of proteins that interact with active Gα subunits in a G protein family-selective manner. G protein activation following receptor stimulation generally leads to an increase in the BRET signal.
(§4) HEK293 cells were maintained in Dulbecco's Modified Eagle Medium (DMEM) (Wisent; cat #319-030-CL: without sodium pyruvate, with 4.5 g/L glucose, without L-glutamine) supplemented with 1% penicillin-streptomycin (Wisent; cat #450-201-EL) and 2 or 10% fetal bovine serum (Wisent cat #090150).
(§5) HEK293 cells were co-transfected with hCB1 and one of the above-listed bioSensAll® assays. For each transfection condition: • the total amount of transfected DNA was kept constant at 1 μg per mL of cell culture to be transfected; whenever necessary, salmon sperm DNA (Invitrogen, cat #15632011) was used as ‘carrier’ DNA to supplement plasmid DNA (i.e., biosensor and receptor); • the PEI (polyethylenimine 25 kDa linear, PolyScience, cat #23966) to DNA ratio (ug:ug) was fixed at 3:1.
(§6) Transfections were carried out as follows: • DNA and PEI were first diluted separately in 150 mM NaCl. The volume of the diluent in each tube corresponds to 5% of the cell culture volume to be transfected. • Once DNA and PEI were diluted, the PEI-containing solution was added to the DNA solution and the DNA/PEI mixture immediately vortexed for 5 seconds. • The DNA/PEI mixture was incubated for at least 20 minutes at room temperature to allow for the formation of DNA/PEI complexes. • During the incubation, HEK293 cells were detached, counted and re-suspended in culture medium (composition specified above). • At the end of the incubation period, the DNA/PEI mixture was added to the cells. • Cells were finally distributed in 96-well plates (White Opaque 96-well/Microplates, Greiner, cat #655083 or CulturPlate-96, White Opaque 96-well Microplate, PerkinElmer, cat #6005688) at a density of 30,000 cells per well.
(§7) At 48 hours post-transfection: • Using 450-Select TS Biotek plate washer, culture medium was aspirated and replaced with 100 μL of Hank's Balanced Salt Solution buffer (HBSS) (Wisent, cat #319-067CL: without red phenol; with sodium bicarbonate, with calcium and magnesium, with HEPES) per well. • Plates were then incubated (equilibrated) at 37° C., 5% CO2 for 60 minutes. • Increasing doses of test compounds were then added to each well using the HP D300e digital dispenser (Tecan). All compounds were assayed at the following 12 concentrations (in nM) with each biosensor: 0.000, 0.013, 0.040, 0.120, 0.320, 0.960, 2.80, 8.00, 24.0, 70.0, 205 and 600. • Three to 5 minutes later, an assay-specific effective concentration (EC)75-80 of agonist CP55,940 (i.e., 0.1 nM and 100 nM for G[…]i2-GAPL or […]Arrestin2 (+GRK2) assay, respectively) was added to wells previously injected with test compound (i.e., previous step 3). […]
(In general: In BRET a luciferase serves as donor, and the signal depends on an acceptor being close.)

Test [2] addresses T1, human CB1 receptor. The test is described as follows: bioSensAll β-arrestin2 plasma membrane translocation (+GRK2) BRET biosensor assay in HEK293 cells transfected with hCB1; test compound added before EC75-80 of agonist CP55,940 (100 nM). The conditions noted are these: βArrestin2 (+GRK2) BRET biosensor, vs CP55,940 100 nM (EC75-80), read-out: CB1 wt βarr2 IC50. It counts as cell-based. On the procedure: as §1, §2, §3
ii) The multimolecular β-arrestin membrane recruitment biosensors allow for real-time spatio-temporal monitoring of β-arrestin 1 and β-arrestin 2 following GPCR activation. Specifically, these β-arrestin sensors were designed to detect the recruitment of proteins to the plasma membrane (β-arrestin PM) with localization to compartment resulting in an increased BRET signal.
as §4, §5, §6, §7

T1 sequence (P21554 whole entry): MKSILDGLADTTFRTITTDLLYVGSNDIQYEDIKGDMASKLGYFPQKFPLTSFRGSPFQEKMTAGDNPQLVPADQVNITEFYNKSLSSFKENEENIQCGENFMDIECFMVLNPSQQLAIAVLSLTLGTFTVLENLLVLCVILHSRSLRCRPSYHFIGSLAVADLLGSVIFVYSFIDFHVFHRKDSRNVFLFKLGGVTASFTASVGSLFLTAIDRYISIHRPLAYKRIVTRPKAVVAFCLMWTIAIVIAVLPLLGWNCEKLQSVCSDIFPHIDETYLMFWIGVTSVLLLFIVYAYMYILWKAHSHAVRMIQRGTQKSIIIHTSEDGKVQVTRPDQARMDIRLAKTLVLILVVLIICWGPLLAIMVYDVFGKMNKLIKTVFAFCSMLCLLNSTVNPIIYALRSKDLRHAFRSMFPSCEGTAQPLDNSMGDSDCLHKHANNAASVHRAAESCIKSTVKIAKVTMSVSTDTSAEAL

In general, IC50 refers to the concentration at which inhibition is half-maximal. Regarding `CC(C)(O)COc1nc(N2CCC(C)(C(N)=O)CC2)c2nc(-c3ccccc3Cl)n(-c3ccc(Cl)cc3)c2n1` [Compound 9, 1-[8-(2-chlorophenyl)-9-(4-chlorophenyl)-2-(2-hydroxy-2-methyl-propoxy)purin-6-yl]-4-methyl-piperidine-4-carboxamide], the IC50 turned out to be 0.398 nM in test [1] and 2.92 nM in test [2].
The corresponding values for `COCCOc1nc(N2CCC(C)(C(N)=O)CC2)c2nc(-c3ccccc3Cl)n(-c3ccc(Cl)cc3)c2n1` [Compound 10, 1-[8-(2-chlorophenyl)-9-(4-chlorophenyl)-2-(2-methoxyethoxy)purin-6-yl]-4-methyl-piperidine-4-carboxamide] are 1.47 nM and 6.8 nM.
For `CC1(C(N)=O)CCN(c2nc(NCCS(C)(=O)=O)nc3c2nc(-c2ccccc2Cl)n3-c2ccc(Cl)cc2)CC1` [Compound 11, 1-[8-(2-chlorophenyl)-9-(4-chlorophenyl)-2-(2-methylsulfonylethylamino)purin-6-yl]-4-methyl-piperidine-4-carboxamide] the same measures were 2.01 nM and 30.1 nM.
Turning to `CC1(C(N)=O)CCN(c2nc(N(CCO)Cc3ccccc3)nc3c2nc(-c2ccccc2Cl)n3-c2ccc(Cl)cc2)CC1` [Compound 12, 1-[2-[benzyl(2-hydroxyethyl)amino]-8-(2-chlorophenyl)-9-(4-chlorophenyl)purin-6-yl]-4-methyl-piperidine-4-carboxamide], the IC50 in test [1] worked out at 0.5 nM; in test [2], 3.09 nM.
For `CC1(C(N)=O)CCN(c2nc(N3CCC[C@@H]3CO)nc3c2nc(-c2ccccc2Cl)n3-c2ccc(Cl)cc2)CC1` [Compound 13, 1-[8-(2-chlorophenyl)-9-(4-chlorophenyl)-2-[(2R)-2-(hydroxymethyl)pyrrolidin-1-yl]purin-6-yl]-4-methyl-piperidine-4-carboxamide] the same measures were 7.02 nM and greater than 5000 nM.
For `CC1(C(N)=O)CCN(c2nc(N3C[C@H]4CCC[C@H]4C3)nc3c2nc(-c2ccccc2Cl)n3-c2ccc(Cl)cc2)CC1` [Compound 14, 1-[2-[(3aS,6aR)-3,3a,4,5,6,6a-hexahydro-1H-cyclopenta[c]pyrrol-2-yl]-8-(2-chlorophenyl)-9-(4-chlorophenyl)purin-6-yl]-4-methyl-piperidine-4-carboxamide] the same measures were 6.5 nM and 34.5 nM.
The corresponding values for `CC1(C(N)=O)CCN(c2nc(N3C[C@H]4C[C@H]4C3)nc3c2nc(-c2ccccc2Cl)n3-c2ccc(Cl)cc2)CC1` [Compound 15, 1-[2-[(1R,5S)-3-azabicyclo[3.1.0]hexan-3-yl]-8-(2-chlorophenyl)-9-(4-chlorophenyl)purin-6-yl]-4-methyl-piperidine-4-carboxamide] are 1.29 nM and 8.03 nM.
As to `CC1(C(N)=O)CCN(c2nc(N3CCS(=O)(=O)CC3)nc3c2nc(-c2ccccc2Cl)n3-c2ccc(Cl)cc2)CC1` [Compound 16, 1-[8-(2-chlorophenyl)-9-(4-chlorophenyl)-2-(1,1-dioxo-1,4-thiazinan-4-yl)purin-6-yl]-4-methyl-piperidine-4-carboxamide], the IC50 in test [1] stood at 0.315 nM; in test [2] it was 1.51 nM.
The corresponding values for `CC1(C(N)=O)CCN(c2nc(OC3CCCOC3)nc3c2nc(-c2ccccc2Cl)n3-c2ccc(Cl)cc2)CC1` (stereo not drawn) [Compound 17, 1-[8-(2-chlorophenyl)-9-(4-chlorophenyl)-2-tetrahydropyran-3-yloxy-purin-6-yl]-4-methyl-piperidine-4-carboxamide] are 0.617 nM and 2.39 nM.
As for `CC(=O)NC(=N)Nc1nc(N2CCC(C)(C(N)=O)CC2)c2nc(-c3ccccc3Cl)n(-c3ccc(Cl)cc3)c2n1` [Compound 18, 1-[2-[(N-acetylcarbamimidoyl)amino]-8-(2-chlorophenyl)-9-(4-chlorophenyl)purin-6-yl]-4-methyl-piperidine-4-carboxamide], the IC50 in test [1] is 3.73 nM; in test [2], 11.3 nM.
The corresponding values for `CN(CCO)c1nc(N2CCC(C)(C(N)=O)CC2)c2nc(-c3ccccc3Cl)n(-c3ccc(Cl)cc3)c2n1` [Compound 19, 1-[8-(2-chlorophenyl)-9-(4-chlorophenyl)-2-[2-hydroxyethyl(methyl)amino]purin-6-yl]-4-methyl-piperidine-4-carboxamide] are 0.187 nM and 1.07 nM.
For `CC1(C(N)=O)CCN(c2nc(N3CCC[C@H]3CO)nc3c2nc(-c2ccccc2Cl)n3-c2ccc(Cl)cc2)CC1` [Compound 20, 1-[8-(2-chlorophenyl)-9-(4-chlorophenyl)-2-[(2S)-2-(hydroxymethyl)pyrrolidin-1-yl]purin-6-yl]-4-methyl-piperidine-4-carboxamide] the same measures were 0.255 nM and 0.568 nM.
For `Cc1cnn(-c2nc(N3CCC(C(F)(F)F)CC3)c3nc(-c4ccccc4Cl)n(-c4ccc(Cl)cc4)c3n2)c1` [Compound 21, 8-(2-chlorophenyl)-9-(4-chlorophenyl)-2-(4-methylpyrazol-1-yl)-6-[4-(trifluoromethyl)-1-piperidyl]purine] the same measures were 4.37 nM and 28.9 nM.
As for `Cc1ccn(-c2nc(N3CCC(C(F)(F)F)CC3)c3nc(-c4ccccc4Cl)n(-c4ccc(Cl)cc4)c3n2)n1` [Compound 22, 8-(2-chlorophenyl)-9-(4-chlorophenyl)-2-(3-methylpyrazol-1-yl)-6-[4-(trifluoromethyl)-1-piperidyl]purine], the IC50 in test [1] was found to be 1.33 nM; in test [2], 11.3 nM.
For `OCCCOc1nc(N2CCC(C(F)(F)F)CC2)c2nc(-c3ccccc3Cl)n(-c3ccc(Cl)cc3)c2n1` [Compound 23, 3-[8-(2-chlorophenyl)-9-(4-chlorophenyl)-6-[4-(trifluoromethyl)-1-piperidyl]purin-2-yl]oxypropan-1-ol] the same measures were 0.846 nM and 4.36 nM.
As to `COCCOc1nc(N2CCC(C(F)(F)F)CC2)c2nc(-c3ccccc3Cl)n(-c3ccc(Cl)cc3)c2n1` [Compound 27, 8-(2-chlorophenyl)-9-(4-chlorophenyl)-2-(2-methoxyethoxy)-6-[4-(trifluoromethyl)-1-piperidyl]purine], the figures for the IC50 in test [1] and in test [2] were 1.5 nM and 10.2 nM, respectively.
The corresponding values for `CS(=O)(=O)CCNc1nc(N2CCC(C(F)(F)F)CC2)c2nc(-c3ccccc3Cl)n(-c3ccc(Cl)cc3)c2n1` [Compound 28, 8-(2-chlorophenyl)-9-(4-chlorophenyl)-N-(2-methylsulfonylethyl)-6-[4-(trifluoromethyl)-1-piperidyl]purin-2-amine] are 1.02 nM and 12.2 nM.
The corresponding values for `OC[C@H]1CCCN1c1nc(N2CCC(C(F)(F)F)CC2)c2nc(-c3ccccc3Cl)n(-c3ccc(Cl)cc3)c2n1` [Compound 29, [(2R)-1-[8-(2-chlorophenyl)-9-(4-chlorophenyl)-6-[4-(trifluoromethyl)-1-piperidyl]purin-2-yl]pyrrolidin-2-yl]methanol] are 6.92 nM and greater than 5000 nM.
